The values below come from US20240293413A1, “COMPOUND AND METHOD FOR TREATING CHEMOTHERAPY-RELATED GASTROINTESTINAL SIDE EFFECTS” (ONQUALITY PHARMACEUTICALS CHINA LTD., priority 2021, published 2024).

Each structure is given as a SMILES string.

Type in all cases: in vivo
Experiment [1] relates to Chemotherapeutic agent-caused diarrhea models of Balb/c mice. In words: Examples 1-229 (Table 3): oral CDK inhibitor, relief of diarrhea caused by a chemotherapeutic agent.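 Also: percent of treated mice whose diarrhea grade fell below chemotherapy-group average.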
The subject of experiment [2] is diarrhea caused by a chemotherapeutic agent in Balb/c mice. The experiment is described as follows: Examples 230-271 (Table 4): oral CDK inhibitor, relief of diarrhea caused by a chemotherapeutic agent. From the text:
Balb/c mice were fed for 1 week, and then divided into groups. The experiment was divided into a control group, a chemotherapeutic agent group, and a CDK inhibitor group, each of which comprised 10 mice, to perform the administration experiment, for which the administration dosage, mode, time and frequency were shown in Table 4. The control group: being intragastrically administered with the same solvent as that used in the CDK inhibitor group (the time was shown in Table 4), and then being injected/intragastrically administered with the same solvent as that used in the chemotherapeutic agent group (the administration mode was shown in Table 4): the chemotherapeutic agent group: being intragastrically administered with the same solvent as that used in the CDK inhibitor group (the time was shown in Table 4), and then being injected/intragastrically administered with the chemotherapeutic agent (the type, administration mode and dosage were shown in Table 4): the CDK inhibitor group: being intragastrically administered with the CDK inhibitor (the time was shown in Table 4), and then being administered with the chemotherapeutic agent (the mode and dosage were shown in Table 4).
(§1) The diarrhea grading of mice was observed and recorded every day.

Experiment [3] concerns Chemotherapeutic agent-caused constipation models of Balb/c mice. In words: Examples 272-342 (Table 5): oral CDK inhibitor, relief of constipation caused by a chemotherapeutic agent.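 Also: percent of treated mice relieved versus chemotherapy group by feces reduction rate.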 The conditions noted are these: Example 335; Cytarabine (Ara-C) oral administration 1000 mg/kg single; CDK inhibitor oral 60 mg/kg single, 24 h before; cycle 8 days. The text has this:
Construction of mouse animal models: Chemotherapeutic agent-caused constipation models of Balb/c mice were constructed according to the administration mode and frequency of the chemotherapeutic agent as shown in Table 5.
Balb/c mice were fed for 1 week, and then divided into groups. The experiment was divided into a control group, a chemotherapeutic agent group, and a CDK inhibitor group, each of which comprised 10 mice, to perform the administration experiment, for which the administration dosage, mode, time and frequency were shown in Table 5. The control group: being intragastrically administered with the same solvent as that used in the CDK inhibitor group (the time was shown in Table 5), and then being injected/intragastrically administered with the same solvent as that used in the chemotherapeutic agent group (the administration mode was shown in Table 5): the chemotherapeutic agent group: being intragastrically administered with the same solvent as that used in the CDK inhibitor group (the time was shown in […]), and then being injected/intragastrically administered with the chemotherapeutic agent (the type, administration mode and dosage were shown in Table 5): the CDK inhibitor group: being intragastrically administered with the CDK inhibitor (the time was shown in Table 5), and then being administered with the chemotherapeutic agent (the mode and dosage were shown in Table 5).
Feces reduction rate (%)=(the control group−the chemotherapeutic agent group or the CDK inhibitor group)/the control group*100%
The feces amount of mice within 3 hours was observed and recorded every day.

Experiment [4] deals with diarrhea caused by a chemotherapeutic agent in Balb/c mice. In words: Examples 343-381 (Table 6): oral versus intravenous CDK inhibitor, relief of diarrhea caused by a chemotherapeutic agent.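 Also: percent of treated mice whose diarrhea grade fell below chemotherapy-group average.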 The conditions noted are these: cycle 10 days.
Text: Balb/c mice were fed for 1 week, and then divided into groups. The experiment was divided into a control group, a chemotherapeutic agent group, and an oral administration group of a CDK inhibitor, and an intravenous injection group of a CDK inhibitor, each of which comprised 10 mice, to perform the administration experiment, for which the administration dosage, mode, time and frequency were shown in Table 6. The control group: being injected/intragastrically administered with the same solvent as that used in the CDK inhibitor group (the time was shown in Table 6), and then being injected/intragastrically administered with the same solvent as that used in the chemotherapeutic agent group (the administration mode was shown in Table 6): the chemotherapeutic agent group: being injected/intragastrically administered with the same solvent as that used in the CDK inhibitor group (the time was shown in Table 6), and then being injected/intragastrically administered with the chemotherapeutic agent (the type, administration mode and dosage were shown in Table 6): the oral administration group of the CDK inhibitor: being intragastrically administered with the CDK inhibitor (the time was shown in Table 6), and then being administered with the chemotherapeutic agent (the mode and dosage were shown in Table 6): the intravenous injection group of the CDK inhibitor: being injected with the CDK inhibitor through tail vein (the time was shown in Table 6), and then being administered with the chemotherapeutic agent (the mode and dosage were shown in Table 6).
as §1

On to `CN1CCC(c2c(O)cc(O)c3c(=O)cc(-c4ccccc4Cl)oc23)C1CO` (stereo not shown) [Riviciclib], for which the “Relative remission rate (%)” value in experiment [1] (Example 35, Fluorouracil (5-Fu) intraperitoneal injection 125 mg/kg single, CDK inhibitor oral 65 mg/kg single 8 h before, cycle 10 days) is given as 40%; in experiment [1] (Example 192, Gemcitabine (GEM) intravenous injection 120 mg/kg single, CDK inhibitor oral 180 mg/kg single, 6 h before, 8 days), 70%; in experiment [1] (Example 215, Fluorouracil 100 mg/kg and irinotecan 200 mg/kg intravenous injection single, CDK inhibitor oral 65 mg/kg single, 2 h before, 10 days) it was 50%. Further, the Relative remission rate stood at 20% in experiment [2] (Example 262, Cytarabine (Ara-C) oral administration 1000 mg/kg single, CDK inhibitor oral single (dosage not given), 24 h before, cycle 8 days); 20% in experiment [3]; 10% in experiment [4] (Example 370, Topotecan (TP) oral administration 20 mg/kg single, CDK inhibitor intravenous injection 60 mg/kg single, 24 h before); 30% in experiment [4] (Example 370, Topotecan (TP) oral administration 20 mg/kg single, CDK inhibitor oral 60 mg/kg single, 24 h before).
For `CCc1cnn2c(NCc3ccc[n+]([O-])c3)cc(N3CCCC[C@H]3CCO)nc12` [Dinaciclib], the “Relative remission rate (%)” value amounted to 10% in experiment [1] (Example 131, Docetaxel (DTX) intraperitoneal injection 10 mg/kg single, CDK inhibitor oral 40 mg/kg single 0.5 h before, cycle 8 days); 10% in experiment [1] (Example 132, Docetaxel (DTX) intraperitoneal injection 10 mg/kg single, CDK inhibitor oral 40 mg/kg single 1 h before, cycle 8 days); 20% in experiment [1] (Example 133, Docetaxel (DTX) intraperitoneal injection 10 mg/kg single, CDK inhibitor oral 40 mg/kg single 2 h before, cycle 8 days); 20% in experiment [1] (Example 134, Docetaxel (DTX) intraperitoneal injection 10 mg/kg single, CDK inhibitor oral 40 mg/kg single 4 h before, cycle 8 days); 30% in experiment [1] (Example 135, Docetaxel (DTX) intraperitoneal injection 10 mg/kg single, CDK inhibitor oral 40 mg/kg single 6 h before, cycle 8 days); 30% in experiment [1] (Example 136, Docetaxel (DTX) intraperitoneal injection 10 mg/kg single, CDK inhibitor oral 40 mg/kg single 8 h before, cycle 8 days). Moreover, the “Relative remission rate (%)” value in experiment [1] (Example 137, Docetaxel (DTX) intraperitoneal injection 10 mg/kg single, CDK inhibitor oral 40 mg/kg single 10 h before, cycle 8 days) stood at 30%; in experiment [1] (Example 138, Docetaxel (DTX) intraperitoneal injection 10 mg/kg single, CDK inhibitor oral 40 mg/kg single 12 h before, cycle 8 days), 20%; in experiment [1] (Example 139, Docetaxel (DTX) intraperitoneal injection 10 mg/kg single, CDK inhibitor oral 40 mg/kg single 14 h before, cycle 8 days) it was 20%; in experiment [1] (Example 140, Docetaxel (DTX) intraperitoneal injection 10 mg/kg single, CDK inhibitor oral 40 mg/kg single 16 h before, cycle 8 days) it was 40%; in experiment [1] (Example 141, Docetaxel (DTX) intraperitoneal injection 10 mg/kg single, CDK inhibitor oral 40 mg/kg single 18 h before, cycle 8 days) it was 30%; in experiment [1] (Example 142, Docetaxel (DTX) intraperitoneal injection 10 mg/kg single, CDK inhibitor oral 40 mg/kg single 20 h before, cycle 8 days), 30%. The “Relative remission rate (%)” value in experiment [1] (Example 143, Docetaxel (DTX) intraperitoneal injection 10 mg/kg single, CDK inhibitor oral 40 mg/kg single 22 h before, cycle 8 days) was determined as 20%; in experiment [1] (Example 144, Docetaxel (DTX) intraperitoneal injection 10 mg/kg single, CDK inhibitor oral 40 mg/kg single 24 h before, cycle 8 days), 10%; in experiment [1] (Example 145, Docetaxel (DTX) intraperitoneal injection 10 mg/kg single, CDK inhibitor oral 40 mg/kg single 48 h before, cycle 8 days), 0%; in experiment [1] (Example 204, Gemcitabine 60 mg/kg and paclitaxel 10 mg/kg intraperitoneal injection single, CDK inhibitor oral 70 mg/kg single, 4 h before, 8 days), 30%. The Relative remission rate in experiment [2] (Example 240, Doxorubicin (Dox) intramuscular injection 10 mg/kg single, CDK inhibitor oral 40 mg/kg single, 0.5 h before, cycle 10 days) turned out to be 30%; in experiment [2] (Example 241, Doxorubicin (Dox) intramuscular injection 10 mg/kg single, CDK inhibitor oral 40 mg/kg single, 12 h before, cycle 10 days), 20%; in experiment [2] (Example 242, Doxorubicin (Dox) intramuscular injection 10 mg/kg single, CDK inhibitor oral 40 mg/kg single, 24 h before, cycle 10 days), 0%; in experiment [4] (Example 368, Topotecan (TP) intravenous injection 10 mg/kg single, CDK inhibitor intravenous injection 40 mg/kg single, 0.5 h before), 10%; in experiment [4] (Example 368, Topotecan (TP) intravenous injection 10 mg/kg single, CDK inhibitor oral 40 mg/kg single, 0.5 h before), 20%.
